Data published in patent US9284567B2, “Method for gene introduction into hordeum plant using agrobacterium, and method for production of transformed plant of hordeum plant” (JAPAN TOBACCO INC., priority 2010, dated 2016).

Experiments:
barley immature embryos [1] = experiment: Callus formation from cocultured immature embryos; type: cell-based; details: 0.25 mg/L (1.13 μM) in 1/10 diluted MS coculture medium, no centrifugation or pressurization
[2] = system: scutellum of barley immature embryo; experiment: Gene introduction efficiency (GUS expression index) after coculture with Agrobacterium; type: cell-based, barley (variety: Golden Promise)
Description: Immature embryos (size: 1.5 to 2.0 mm) of barley (variety: Golden Promise) from which embryonic axes were removed were aseptically collected and were immersed in 1 mL of sterilized water in a 2-mL microtube. In order to enhance the gene introduction efficiency, the tube containing the immature embryos was heated in a water bath at 43° C. for 5 minutes. An Agrobacterium strain EHA101 having a hygromycin resistance gene (pIG121Hm) (Non-Patent Literature 2) was suspended in an MG/L liquid medium (Non-Patent Literature 28) containing 100 μM acetosyringone and was shake-cultured (180 rpm) at 28° C. overnight (about 20 hours) to prepare an inoculation source. The bacterial concentration was adjusted to an O.D. of 1.0 (660 nm). The inoculation source was added to the thermal-treated immature embryos, and a reduced pressure treatment was performed with a vacuum pump at 500 mbar for 10 minutes. The immature embryos were washed once with a callus induction liquid medium, CIMT (Tingay et al., 1997: Non-Patent Literature 5) not containing any plant growth regulator (hereinafter, antiauxins, cytokinins, and auxins are collectively referred to as plant growth regulators). The immature embryos inoculated with Agrobacterium were transplanted onto a barley coculture medium (1/10 diluted MS inorganic salts and MS vitamins, 10 g/L of glucose, 0.5 g/L of MES, 5 μM AgNO3, and 5 μM CuSO4, pH 5.8; and 8 g/L of agarose) containing 100 μM acetosyringone in such a manner that the scutellum side faces upward. The test was performed using two plant growth regulators in four test groups of the coculture medium. That is, the four test groups are a hormone-free test group not containing any plant growth regulator, a test group of 5 μM TIBA (antiauxin), a test group of 1.13 μM dicamba (auxin), and a test group of 11.3 μM dicamba (auxin).
Immature embryos cultured at 25° C. in the dark for 24 hours were transplanted in a CIMT resting medium (Tingay et al., 1997: Non-Patent Literature 5) containing 0.5 mg/L of 2,4-D and 1.25 mg/L of CuSO4.5H2O. The resting medium was added with 250 mg/L of carbenicillin and 100 mg/T, of cefotaxime for Agrobacterium eradication. […] The expression of the GUS gene in the scutellum region of each immature embryo was evaluated in seven grades: 87.5 (expressed in 75% or more of scutellum), 62.5 (expressed in 50% or more and less than 75% of scutellum), 37.5 (expressed in 25% or more and less than 50% of scutellum), 17.5 (expressed in 10% or more and less than 25% of scutellum), […] (expressed in 1% or more and less than 10% of scutellum), 0.5 (expressed in exceeding 0% and less than 1% of scutellum), and 0 (no expression), and the average value thereof was expressed by a numerical value as the GUS expression index. […]

barley immature embryos [3] = experiment: Hygromycin resistance callus formation after secondary selection; type: cell-based, barley (variety: Golden Promise); details: Example 4, 5 μM TIBA in coculture medium
Description: The materials, the method of inoculation with Agrobacterium, the thermal treatment conditions, the coculture step, the centrifugation treatment conditions, and the resting step were the same as those in Example 3. The coculture medium contained an antiauxin: 5 μM TIBA. The scutellum was divided into four sections, and the resting step was further continued for 10 days. After the resting step, each divided scutellum section was further divided into 4 subsections (i.e., one immature embryo was divided into 16 sections). The divided subsections were transplanted in a CIMT selection medium (Tingay et al., 1997: Non-Patent Literature 5) containing 50 mg/L of hygromycin B and 1.25 mg/L of CuSO4.5H2O. The selection medium was added with 250 mg/L of carbenicillin for Agrobacterium eradication. Scutellum subsections were sorted by the original immature embryo and placed on the medium. After the culture at 25° C. in the dark for 2 weeks, only compact calli were selected by removing sponge-like calli containing a large amount of moisture. […] After the culture, hygromycin resistance compact calli propagated on the selection medium were counted. Note that even when a plurality of resistance calli were formed from scutellum subsections derived from a single immature embryo, only one of the resistance calli was counted as a hygromycin resistance callus for each immature embryo.

barley immature embryos [4] = experiment: Transformation efficiency per immature embryo (hygromycin-resistant and GUS-positive regenerated plants); type: cell-based, barley (variety: Golden Promise)
Description: The preparation of materials and the inoculation with Agrobacterium were performed as in Example 1. The thermal treatment was also similarly performed.
Test group (1): Immature embryos inoculated with Agrobacterium were placed on the coculture medium described in Harwood et al. (2008: Non-Patent Literature 11) in such a manner that the scutellum faces downward. The coculture was performed at 25° C. in the dark for 3 days. In this test group, the centrifugation treatment was not performed.
Test group (2): Isolated immature embryos were transferred in a 2-mL microtube containing 1 mL of sterilized water and were centrifuged at 25° C. at 15000 rpm (20000×g) for 10 minutes. Subsequently, coculture was performed as in test group (1).
Test group (3): Immature embryos cocultured as in test group (1) were transferred in a 2-mL microtube containing 1 mL of sterilized water and were centrifuged at 25° C. at 15000 rpm (20000×g) for 10 minutes.
Test group (4): Immature embryos inoculated with Agrobacterium were transferred onto a barley coculture medium (1/10 diluted MS inorganic salts and MS vitamins, 10 g/L of glucose, 5 μM TIBA, 0.5 g/L of MES, 5 μM AgNO3, and 5 μM CuSO4, pH 5.8; and 8 g/L of agarose) containing 100 μM acetosyringone in such a manner that the scutellum side faces upward. The immature embryos were cultured at 25° C. in the dark for 24 hours. In this test group, the centrifugation treatment was not performed.
Test group (5): Isolated immature embryos were transferred in a 2-mL microtube containing 1 mL of sterilized water and were centrifuged at 25° C. at 15000 rpm (20000×g) for 10 minutes. Subsequently, coculture was performed as in test group (4).
Test group (6): Immature embryos cocultured as in test group (4) were transferred in a 2-mL microtube containing 1 mL of sterilized water and were centrifuged at 25° C. at 15000 rpm (20000×g) for 10 minutes.
That is, test groups (1), (2), and (3) used a coculture medium containing an auxin, dicamba, and undiluted MS inorganic salts, whereas test groups (4), (5), and (6) used a coculture medium containing an antiauxin, TIBA, and 1/10 diluted MS inorganic salts. Test group (7) used a hormone-free coculture medium containing 1/10 diluted MS inorganic salts.
The immature embryos prepared in test groups (1) to (7) were each transplanted in a CIMT resting medium (Tingay et al., 1997: Non-Patent Literature 5) containing 0.5 mg/L of 2,4-D, but not containing any selective agents. The resting medium was added with 250 mg/L of carbenicillin and 100 mg/L of cefotaxime for Agrobacterium eradication. The immature embryos were cultured at 25° C. in the dark for 7 days and were each divided into four sections. The divided sections were transplanted in a CIMT resting medium (Tingay et al., 1997: Non-Patent Literature 5) containing 0.2 mg/L of 2,4-D and 5 μM CuSO4, but not containing any selective agent. After the resting culture at 25° C. in the dark for 10 days, each four-divided immature embryo section was further divided into three to six subsections (i.e., one immature embryo was divided into 12 to 24 sections). The divided subsections were placed on a CIMT selection medium (Tingay et al., 1997: Non-Patent Literature 5) containing 0.1 mg/L of 2,4-D, 1.5 μM CuSO4, and 75 mg/L of hygromycin and were cultured at 25° C. in the dark for 10 days. Subsequently, subsections having cell clump supposed to be hygromycin resistance were subcultured in a selection medium having the same composition and were cultured at 25° C. in the dark for 10 days.
One hygromycin resistance callus for each divided section was placed on a transition (regeneration preculture) medium (Harwood et al. (2008: Non-Patent Literature 11)) not containing hygromycin and was cultured at 25° C. in the dark for about 2 weeks.

Question: Which results are given for `O=C(O)COc1ccc(Cl)cc1Cl` [2,4-D, 2,4-dichlorophenoxyacetic acid]?
Answer: callus formation from cocultured immature embryos (barley immature embryos [1]): almost no callus was formed; gene introduction efficiency relative to hormone-free coculture medium ([2]; Example 5, FIG. 3, 1.13 μM in 1/10 diluted MS coculture medium): about one-sixth that of the hormone-free coculture medium; gene introduction efficiency (GUS expression index) ([2]; Example 5, FIG. 3, 11.3 μM in 1/10 diluted MS coculture medium): lowest

Question: `O=C(O)c1cc(I)cc(I)c1I` [TIBA, 2,3,5-triiodobenzoic acid] was tested. Which “frequency of hygromycin resistance callus formation from immature embryos” value (barley immature embryos [3]; with centrifugation treatment after coculture, after secondary selection) did it give?
Answer: The value was 80%.

Question: What about the “frequency of hygromycin resistance callus formation from immature embryos” value (barley immature embryos [3]; without centrifugation treatment) of the same compound?
Answer: The value was “no callus survived in the selection medium”.

Question: And the “transformation efficiency per immature embryo” value (barley immature embryos [4]; test group 4: 5 μM TIBA, 1/10 diluted MS coculture medium, 24 hours, no centrifugation treatment)?
Answer: Its value is “no transformant was obtained at all”.

Question: What about the “transformation efficiency per immature embryo” value (barley immature embryos [4]; test group 5: 5 μM TIBA, 1/10 diluted MS coculture medium, centrifugation treatment before inoculation with Agrobacterium) of the same compound?
Answer: The value was 90%.

Question: And the “transformation efficiency per immature embryo” value (barley immature embryos [4]; test group 6: 5 μM TIBA, 1/10 diluted MS coculture medium, centrifugation treatment after coculture)?
Answer: The value was 100%.

Question: And the “gene introduction efficiency (GUS expression index)” value ([2]; Example 1, FIG. 1, 5 μM in 1/10 diluted MS coculture medium, coculture 24 hours, versus plant growth regulator-free group)?
Answer: The value was “notably enhanced”.

Question: How did the “transformation efficiency per immature embryo” value (barley immature embryos [4]; test group 1: conventional coculture medium with dicamba, undiluted MS, coculture 3 days, without centrifugation treatment) turn out when `COc1c(Cl)ccc(Cl)c1C(=O)O` [dicamba, 3,6-dichloro-2-methoxybenzoic acid] was run?
Answer: The value was 30%.

Question: What about the “transformation efficiency per immature embryo” value (barley immature embryos [4]; test group 2: conventional coculture medium with dicamba, undiluted MS, centrifugation treatment before inoculation) of the same compound?
Answer: The value was “no transformant was obtained at all”.

Question: And the “transformation efficiency per immature embryo” value (barley immature embryos [4]; test group 3: conventional coculture medium with dicamba, undiluted MS, centrifugation treatment after coculture)?
Answer: Its value is 20%.

Question: And the “gene introduction efficiency (GUS expression index)” value ([2]; Example 1, FIG. 1, 11.3 μM in 1/10 diluted MS coculture medium, coculture 24 hours)?
Answer: The value was “lowest”.
